Assay: stability of MMST in water without stabilizers
Assay type: physicochemical
Settings: stability declines at higher concentrations
Description: In a preferred embodiment of a composition according to the first aspect of the invention, the composition comprises monomethylsilanetriol (MMST). Monomethylsilanetriol (MMST, MeSiOH3 or Si(OH)3CH3) is an organosilanol. […] This organosilanol is highly bioavailable. […] MMST can advantageously be used without stabilizers in silicon equivalent concentrations up to 300 mg/l. The stability of MMST is dependent on concentration and declines at higher concentrations. The stability can further be enhanced by the use of stabilizing agents. In a preferred embodiment the stabilizing agent is based on phenol or polyphenol as described above. The same reasoning applies, mutatis mutandis, with respect to stabilizing effect on the free hydroxyl groups.

C[Si](O)(O)O [MMST, monomethylsilanetriol]
silicon equivalent concentration usable without stabilizers: up to 300 mg/l
